Paper PMC12281424, “A Rac-specific competitive inhibitor of guanine nucleotide binding reduces metastasis in triple-negative breast cancer” (Cell Reports Medicine, 2025)

How the values were obtained:
ErbB4(h) = ErbB4(h) (Homo sapiens, UniProt Q15303); assay: Kinase Profiler; assay type: biochemical
Experimental: (§1) The kinase profiler was performed by the company Eurofins (Discovery, Panlab and Cerep).

Adrenergic α1A = Adrenergic α1A (Rattus norvegicus, UniProt P43140); assay: Safety screen; assay type: binding
Experimental: Blood cell counts, kinase profiler, safety screen, bacterial cytotoxicity, Ames, micronucleus assays were performed by the company Eurofins (France).

NEK1(h) = NEK1(h) (Homo sapiens, UniProt Q96PY6); assay: Kinase Profiler; assay type: biochemical
Experimental: as §1

Ret(V804M)(h) = Ret(V804M)(h) (Homo sapiens, UniProt P07949, V804M); assay: Kinase Profiler; assay type: biochemical
Experimental: as §1

PKBγ(h) = PKBγ(h) (Homo sapiens, UniProt Q9Y243); assay: Kinase Profiler; assay type: biochemical
Experimental: as §1

SRPK2(h) = SRPK2(h) (Homo sapiens, UniProt P78362); assay: Kinase Profiler; assay type: biochemical
Experimental: as §1

[1] = tested on: Glutamate, NMDA, Polyamine; assay: Safety screen; assay type: binding, rat
Experimental: (§2) Blood cell counts, kinase profiler, safety screen, bacterial cytotoxicity, Ames, micronucleus assays were performed by the company Eurofins (France). The kinase profiler was performed by the company Eurofins (Discovery, Panlab and Cerep).

PKG1β(h) = PKG1β(h) (Homo sapiens, UniProt Q13976); assay: Kinase Profiler; assay type: biochemical
Experimental: as §1

SLK(h) = SLK(h) (Homo sapiens, UniProt Q9H2G2); assay: Kinase Profiler; assay type: biochemical
Experimental: as §1

EphA1(h) = EphA1(h) (Homo sapiens, UniProt P21709); assay: Kinase Profiler; assay type: biochemical
Experimental: as §1

STK32A(h) = STK32A(h) (Homo sapiens, UniProt Q8WU08); assay: Kinase Profiler; assay type: biochemical
Experimental: as §1

CRIK(h) = CRIK(h) (Homo sapiens, UniProt O14578); assay: Kinase Profiler; assay type: biochemical
Experimental: as §1

DYRK1B(h) = DYRK1B(h) (Homo sapiens, UniProt Q9Y463); assay: Kinase Profiler; assay type: biochemical
Experimental: as §1

PKCγ(h) = PKCγ(h) (Homo sapiens, UniProt P05129); assay: Kinase Profiler; assay type: biochemical
Experimental: as §1

TLK1(h) = TLK1(h) (Homo sapiens, UniProt Q9UKI8); assay: Kinase Profiler; assay type: biochemical
Experimental: as §1

PI3K (p110d/p85a)(m) = PI3K (p110d/p85a)(m) (Mus musculus, UniProt O35904); assay: Kinase Profiler; assay type: biochemical
Experimental: as §2

Chain of TLK1(h) (Q9UKI8 whole entry): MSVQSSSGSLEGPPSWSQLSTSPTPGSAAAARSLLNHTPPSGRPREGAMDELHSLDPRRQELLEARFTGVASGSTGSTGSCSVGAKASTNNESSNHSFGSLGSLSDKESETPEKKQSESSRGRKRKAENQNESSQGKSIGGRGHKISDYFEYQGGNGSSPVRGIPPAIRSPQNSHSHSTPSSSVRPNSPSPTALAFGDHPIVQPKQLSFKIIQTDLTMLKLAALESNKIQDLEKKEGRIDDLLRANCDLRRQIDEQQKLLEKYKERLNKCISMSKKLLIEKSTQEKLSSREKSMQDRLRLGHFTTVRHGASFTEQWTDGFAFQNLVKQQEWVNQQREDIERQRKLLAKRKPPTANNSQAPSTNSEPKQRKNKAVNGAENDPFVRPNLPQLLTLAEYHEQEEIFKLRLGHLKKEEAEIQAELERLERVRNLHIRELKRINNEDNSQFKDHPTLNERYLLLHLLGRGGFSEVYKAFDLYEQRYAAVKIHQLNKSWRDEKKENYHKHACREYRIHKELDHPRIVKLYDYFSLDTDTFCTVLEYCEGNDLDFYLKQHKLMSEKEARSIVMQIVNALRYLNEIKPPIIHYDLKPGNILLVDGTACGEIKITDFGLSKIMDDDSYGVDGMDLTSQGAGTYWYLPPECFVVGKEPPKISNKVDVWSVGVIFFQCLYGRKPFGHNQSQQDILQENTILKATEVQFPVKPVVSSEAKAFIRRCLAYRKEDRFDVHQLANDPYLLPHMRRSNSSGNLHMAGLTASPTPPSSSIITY
Chain of Adrenergic α1A (P43140 whole entry): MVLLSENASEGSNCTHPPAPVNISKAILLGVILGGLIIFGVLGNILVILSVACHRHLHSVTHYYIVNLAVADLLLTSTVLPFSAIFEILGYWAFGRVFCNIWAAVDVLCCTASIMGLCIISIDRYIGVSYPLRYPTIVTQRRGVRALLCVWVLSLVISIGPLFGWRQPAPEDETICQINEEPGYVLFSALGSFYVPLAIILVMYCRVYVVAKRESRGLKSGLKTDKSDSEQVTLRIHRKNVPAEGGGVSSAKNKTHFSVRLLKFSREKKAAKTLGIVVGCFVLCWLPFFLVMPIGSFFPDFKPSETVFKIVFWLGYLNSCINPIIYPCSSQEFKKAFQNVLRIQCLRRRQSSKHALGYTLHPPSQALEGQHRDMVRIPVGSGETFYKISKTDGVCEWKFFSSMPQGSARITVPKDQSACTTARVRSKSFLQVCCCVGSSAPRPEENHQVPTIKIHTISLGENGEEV
Chain of EphA1(h) (P21709 26-976): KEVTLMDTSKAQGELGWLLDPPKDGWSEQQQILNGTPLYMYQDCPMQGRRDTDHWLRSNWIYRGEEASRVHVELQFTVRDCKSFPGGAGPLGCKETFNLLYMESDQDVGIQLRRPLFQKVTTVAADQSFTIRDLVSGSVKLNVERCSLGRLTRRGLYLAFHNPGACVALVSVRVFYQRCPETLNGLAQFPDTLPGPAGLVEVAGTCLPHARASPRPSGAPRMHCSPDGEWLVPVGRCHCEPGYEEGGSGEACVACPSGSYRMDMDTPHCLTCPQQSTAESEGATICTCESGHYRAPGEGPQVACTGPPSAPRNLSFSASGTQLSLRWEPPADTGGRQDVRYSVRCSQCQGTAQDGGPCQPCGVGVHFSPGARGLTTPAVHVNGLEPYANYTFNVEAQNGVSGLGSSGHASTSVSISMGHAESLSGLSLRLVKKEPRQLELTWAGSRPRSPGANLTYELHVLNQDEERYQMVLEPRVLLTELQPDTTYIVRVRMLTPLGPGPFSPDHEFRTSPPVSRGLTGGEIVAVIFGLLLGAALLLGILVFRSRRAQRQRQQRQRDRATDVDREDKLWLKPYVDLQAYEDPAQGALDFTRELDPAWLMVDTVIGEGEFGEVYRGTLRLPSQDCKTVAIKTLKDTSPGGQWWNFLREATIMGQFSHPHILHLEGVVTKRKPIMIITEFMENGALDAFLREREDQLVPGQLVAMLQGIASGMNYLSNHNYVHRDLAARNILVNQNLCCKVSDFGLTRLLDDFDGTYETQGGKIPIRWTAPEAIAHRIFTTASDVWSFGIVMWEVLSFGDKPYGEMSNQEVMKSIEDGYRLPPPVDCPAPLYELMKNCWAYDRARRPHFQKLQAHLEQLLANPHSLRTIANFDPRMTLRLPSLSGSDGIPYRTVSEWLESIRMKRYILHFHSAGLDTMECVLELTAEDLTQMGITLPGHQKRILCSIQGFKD
Chain of SRPK2(h) (P78362 whole entry): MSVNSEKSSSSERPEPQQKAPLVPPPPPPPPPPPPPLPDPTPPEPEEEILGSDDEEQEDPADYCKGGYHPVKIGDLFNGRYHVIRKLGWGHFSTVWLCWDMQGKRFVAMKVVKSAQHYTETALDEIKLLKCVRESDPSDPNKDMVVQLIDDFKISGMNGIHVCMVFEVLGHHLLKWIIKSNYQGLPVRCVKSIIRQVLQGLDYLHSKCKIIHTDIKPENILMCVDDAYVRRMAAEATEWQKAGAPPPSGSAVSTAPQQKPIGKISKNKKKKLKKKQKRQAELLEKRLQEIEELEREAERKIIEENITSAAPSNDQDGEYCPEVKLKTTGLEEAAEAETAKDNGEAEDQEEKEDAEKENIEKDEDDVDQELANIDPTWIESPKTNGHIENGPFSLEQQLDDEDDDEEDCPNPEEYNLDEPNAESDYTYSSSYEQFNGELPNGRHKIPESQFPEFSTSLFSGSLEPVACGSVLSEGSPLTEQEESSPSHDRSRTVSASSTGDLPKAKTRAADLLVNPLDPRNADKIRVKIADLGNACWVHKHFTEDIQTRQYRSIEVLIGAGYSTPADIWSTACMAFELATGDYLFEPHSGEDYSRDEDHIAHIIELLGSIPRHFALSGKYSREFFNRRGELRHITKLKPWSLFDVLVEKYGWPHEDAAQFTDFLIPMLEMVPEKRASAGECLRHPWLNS
Chain of Ret(V804M)(h) (P07949 29-1114 V804M): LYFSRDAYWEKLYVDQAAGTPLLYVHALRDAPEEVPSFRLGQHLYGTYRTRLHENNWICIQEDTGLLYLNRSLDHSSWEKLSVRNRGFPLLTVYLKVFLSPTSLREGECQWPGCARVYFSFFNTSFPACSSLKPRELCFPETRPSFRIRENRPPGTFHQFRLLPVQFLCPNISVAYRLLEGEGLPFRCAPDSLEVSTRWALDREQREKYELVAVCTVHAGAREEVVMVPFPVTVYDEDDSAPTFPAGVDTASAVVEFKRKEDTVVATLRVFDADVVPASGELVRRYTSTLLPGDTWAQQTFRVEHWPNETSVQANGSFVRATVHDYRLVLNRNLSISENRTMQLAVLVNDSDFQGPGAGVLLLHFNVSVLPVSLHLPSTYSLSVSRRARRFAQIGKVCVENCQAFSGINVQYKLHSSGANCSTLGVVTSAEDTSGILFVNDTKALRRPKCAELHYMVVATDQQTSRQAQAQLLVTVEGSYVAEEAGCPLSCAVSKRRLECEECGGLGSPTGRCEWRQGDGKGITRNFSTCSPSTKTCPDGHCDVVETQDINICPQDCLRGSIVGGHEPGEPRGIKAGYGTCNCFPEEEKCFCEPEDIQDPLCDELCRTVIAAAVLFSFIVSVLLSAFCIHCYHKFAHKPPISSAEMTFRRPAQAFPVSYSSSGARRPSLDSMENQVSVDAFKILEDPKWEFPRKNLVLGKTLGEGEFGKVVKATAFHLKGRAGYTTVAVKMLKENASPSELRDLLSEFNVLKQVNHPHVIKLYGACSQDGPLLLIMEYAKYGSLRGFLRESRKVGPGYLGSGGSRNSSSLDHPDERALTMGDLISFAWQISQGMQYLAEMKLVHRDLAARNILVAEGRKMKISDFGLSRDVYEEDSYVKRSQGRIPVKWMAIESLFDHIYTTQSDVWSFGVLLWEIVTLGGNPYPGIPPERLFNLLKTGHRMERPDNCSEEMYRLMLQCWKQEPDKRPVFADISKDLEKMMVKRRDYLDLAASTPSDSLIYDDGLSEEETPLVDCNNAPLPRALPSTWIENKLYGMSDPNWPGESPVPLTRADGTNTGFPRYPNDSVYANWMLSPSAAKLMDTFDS
Chain of STK32A(h) (Q8WU08 whole entry): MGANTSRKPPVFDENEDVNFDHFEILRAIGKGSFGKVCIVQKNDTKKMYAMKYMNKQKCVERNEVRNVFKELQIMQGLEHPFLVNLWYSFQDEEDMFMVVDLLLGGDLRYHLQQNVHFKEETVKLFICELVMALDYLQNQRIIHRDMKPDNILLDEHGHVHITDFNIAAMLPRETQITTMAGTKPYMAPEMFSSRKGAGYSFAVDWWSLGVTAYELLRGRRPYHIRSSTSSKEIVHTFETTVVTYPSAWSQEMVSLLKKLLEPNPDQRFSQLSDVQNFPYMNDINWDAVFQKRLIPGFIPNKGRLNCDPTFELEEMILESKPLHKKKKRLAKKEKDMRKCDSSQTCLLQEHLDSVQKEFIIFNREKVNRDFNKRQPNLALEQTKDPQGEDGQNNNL

COc1ccc(OC)c(NS(=O)(=O)c2ccc(NC(=O)CCSc3ccc(C)cc3)cc2)c1 [Compound A41]
Activity(%) (ErbB4(h)): 108% | % inh. (Adrenergic α1A): 34% | Activity(%) (NEK1(h)): 104% | Activity(%) (Ret(V804M)(h)): 106% | Activity(%) (PKBγ(h)): 98% | Activity(%) (SRPK2(h)): 96% | % inh. [1]: 19% | Activity(%) (PKG1β(h)): 105% | Activity(%) (SLK(h)): 127% | Activity(%) (EphA1(h)): 87% | Activity(%) (STK32A(h)): 100% | Activity(%) (CRIK(h)): 106% | Activity(%) (DYRK1B(h)): 96% | Activity(%) (PKCγ(h)): 112% | Activity(%) (TLK1(h)): 102% | Activity(%) (PI3K (p110d/p85a)(m)): 100%
